# From PMC1779548, “Antihuman Immunodeficiency Virus Type 1 (HIV-1) Activity of Rare Earth Metal Complexes of 4-Hydroxycoumarins in Cell Culture” (Bioinorganic Chemistry and Applications, 2006)
# How the values were obtained:
# [1] = in vitro; format: cell-based; settings: MT-2 cells, neutral red uptake, 72 h
# Text: (§1) The following cell lines were used: H9/HTLV III B—chronically infected with HIV-1LAI cells, kindly provided by Professor R. Gallo, and MT-2 uninfected human lymphoblastoid cells, HTLV-I transformed. The cells were maintained in RPMI 1640 plus 10% FCS.
# (§2) The following parameters were studied: cytotoxic concentration 50—CC50 (concentration […] death of 50% of MT-2 cells), maximal nontoxic concentration—MNC (the highest concentration causing no cytotoxicity), and inhibitory concentration 50–IC50 (concentration inhibiting by 50% the viral replication). CC50 and MNC were detected by neutral red uptake assay. IC50 was studied on MT-2 cells by microtiter infection assay using neutral red uptake. Briefly, the experimental procedure under conditions of acute infection was performed in 96-well microplates in the following sequence:
# (§3) • 100 μL MT-2 cells (4–5 × 10 ^4 cells); • 50 μL HIV-1 (undiluted or in the appropriate dilution to obtain multiplicity of infection ≥ 1); contact (2 hours at 37°C/5% CO2); when CC50 and MNC were detected, growth medium instead of virus has been added; • 50 μL sample of substance tested starting from 4× MNC (because this volume is 1/4 of the whole volume in the well) and 2- or 10-fold dilutions in growth medium.
# (§4) The cells were incubated for 72 hours and then 100 μL of them were removed to another 96-well plate previously treated for an hour with 50 μg/mL poly-L-lysine (PLL) in volume 100 μL. A solution of 100 μL per well of neutral red in growth medium (0.016%) was added and the cells were incubated for 2 hours at 37°C/5% CO2. Neutral red dye was extracted by acidified alcohol (50% ethanol in 1% acetic acid) and measured colorimetrically at 540 nm. Each plate contained 8 cell control wells (no virus, no substance) for all kinds of experiments. When IC50 was detected, a row of 8 viral controls (plus virus, no substance) and rows of 8 experimental wells (plus virus, different dilutions of the substance) were performed. The values of optical density at 540 nm (OD540) were averaged for each row and the mean values of experimental and control rows were compared. As far as the ligands and their complexes were DMSO soluble, the appropriate controls of DMSO and DMSO + HIV-1 in growth medium were always considered.
# [2] = system: MT-2 cells; experiment: in vitro; format: cell-based; settings: for MNC (maximal nontoxic concentration) / CC50 / MNC higher compared to La(1) and the ligand (1): MT-2 cells; for MNC (maximal nontoxic concentration) / CC50: neutral red uptake, 72 h; for MNC higher compared to La(1) and the ligand (1): ratio of MNC
# Text: as §1, §2, §3, §4
# [3] = system: HIV-1; settings: at MNC, 72 h incubation, supernatants of HIV-1 infected MT-2 cells, averaged after at least 3 experiments
# Method: Endogenous RT activity of supernatants of HIV-1 infected MT-2 cells treated/untreated with complexes and ligands was tested by HS-Lenti Kit-RT assay (Cavidi, Sweden). The kit contained recombinant RT (rRT) as a standard which made possible quantitation of the RT in the sample. The method is nonradioactive and colorimetrically detects RT activity product (DNA) at 405 nm (OD405) [3].
# [4] = system: HIV-1LAI; experiment: Microtiter infection assay (neutral red uptake), acute infection of MT-2 cells; format: cell-based; settings: for Inhibition (%): 2.5 μM, HIV-1LAI infected MT-2 cells; for anti-HIV potency (in words): MT-2/HIV-1, at or under MNC
# Method: As a source of HIV-1, the supernatant of H9/HTLV III B cell line was used. The supernatants were collected and centrifuged to remove the cells, and virus stocks were prepared with known p24 antigen content, RT activity and infectivity. MT-2 cells were infected with HIV-1 (multiplicity of infection ≥ 1) in suspension (37°C/5% CO2) and then grown parallely with uninfected ones for 72 hours.
# CC50 and MNC were detected by neutral red uptake assay. IC50 was studied on MT-2 cells by microtiter infection assay using neutral red uptake. Briefly, the experimental procedure under conditions of acute infection was performed in 96-well microplates in the following sequence:
# as §3, §4
# [5] = system: H9/HTLV III B cells chronically producing HIV-1LAI; experiment: Chronic infection: RT activity in supernatants of treated H9/HTLV III B cells; format: cell-based
# Method: (§5) The effect of the compounds was also studied under conditions of chronic infection using productively HIV-infected cells (H9/HTLV III B). The production of infectious virions was measured again using the cytopathic effect of supernatants on MT-2 cells as described above.
# (§6) To address further the target of HIV inhibition especially by La(W), a study of this complex for effect on late stages of HIV-1 life cycle (protease, budding, assembly) was carried out. To do this, we treated H9/HTLV III B cells—chronically producing HIV-1—with La(W) at 3 concentrations, starting from MNC. Also, 10× dilution of Indinavir was used as a reference for antiprotease effect. Table 7 represents the results for the effect of La(W) in 3 concentrations on late stages of HIV replication.
# [6] = system: H9/HTLV III B cells chronically producing HIV-1LAI; experiment: Chronic infection: microtiter infection assay on MT-2 cells with supernatants of treated H9/HTLV III B cells; format: cell-based; settings: undiluted supernatant on MT-2 cells
# Method: as §5, §6
smiles,measurement,setting,value
"O=c1oc2ccccc2c(O)c1C(c1ccccc1)c1c(O)c2ccccc2oc1=O [(1), 3,3′-benzylidenebis[4-hydroxycoumarin]]",CC50 at 72 h,[1],25 µM
same,MNC (maximal nontoxic concentration),[2],"0,25 μM"
"CC(=O)CC(c1ccccc1)c1c(O)c2ccccc2oc1=O (centres unmarked) [(W), 4-hydroxy-3-(3-oxo-1-phenylbutyl)-2H-1-benzopyran-2-one, reference compound]",CC50 at 72 h,[1],250 µM
same,MNC (maximal nontoxic concentration),[2],25 µM
same,HIV inhibition (%) Endogenous RT activity,[3],∼ 1%
O.O.O=c1oc2ccccc2c([O-])c1C(c1ccccc1)c1c([O-])c2ccccc2oc1=O.[Ce+3].[OH-] [Ce(1)],CC50,[2],25 µM
same,MNC (maximal nontoxic concentration),[2],"12,5 μM"
same,MNC higher compared to La(1) and the ligand (1),[2],10–50 times
same,Inhibition (%),[4]; 72 h incubation,"8,7%"
same,anti-HIV potency (in words),[4],limited anti-HIV potency
same,HIV inhibition (%) Endogenous RT activity,[3],∼ 1%
CC(C)(C)NC(=O)[C@@H]1CN(Cc2cccnc2)CCN1C[C@@H](O)C[C@@H](Cc1ccccc1)C(=O)N[C@H]1c2ccccc2C[C@H]1O [Indinavir],RT activity of SNs OD405,[5]; 0.05 μM,1.454 OD405
same,RT activity of SNs OD405,[5]; 0.5 μM,1.400 OD405
same,RT activity of SNs OD405,[5]; 5 μM,1.154 OD405
same,RT activity of SNs OD405,[5]; 50 μM,0.903 OD405
same,Microtiter infection assay OD540,[6]; 0.05 μM,0.739 OD540
same,Microtiter infection assay OD540,[6]; 0.5 μM,0.633 OD540
same,Microtiter infection assay OD540,[6]; 5 μM,0.520 OD540
same,Microtiter infection assay OD540,[6]; 50 μM,0.375 OD540
O.O=c1oc2ccccc2c([O-])c1C(c1ccccc1)c1c([O-])c2ccccc2oc1=O.[La+3].[OH-] [La(1)],CC50,[2],25 µM
same,MNC (maximal nontoxic concentration),[2],"0,25 μM"
O.O=c1oc2ccccc2c([O-])c1C(c1ccccc1)c1c([O-])c2ccccc2oc1=O.[Nd+3].[OH-] [Nd(1)],CC50,[2],125 µM
same,MNC (maximal nontoxic concentration),[2],2.5 µM
same,lower cytotoxicity compared to the other lanthanides and the ligand (1),"[2]; ratio of CC50, MT-2 cells",at least 5 times
same,MNC higher compared to La(1) and the ligand (1),[2],10–50 times
same,Inhibition (%),[4]; 72 h incubation,"10,4%"
same,anti-HIV potency (in words),[4],limited anti-HIV potency
same,HIV inhibition (%) Microtiter infection assay,"[4]; at MNC, 72 h incubation, MT-2 cells, averaged after at least 3 experiments",10.4%
same,HIV inhibition (%) Endogenous RT activity,[3],∼ 1%
